The target in data set [1] is T1, cathepsin S (Homo sapiens, UniProt P25774).
T1 construct: made in house; host or cells: E. coli
The data set can be described thus: Kinetics of cathepsin S inhibition by metal ions, fluorogenic substrate Z-Val-Val-Arg-AMC. The format is biochemical. The conditions noted are these: for Mechanism: specific velocity plot / titration.

Data set [2] concerns cell growth and metabolism. The arrangement: method as in PMID 7929991. The note with it: cited from earlier work.
Data set [3] addresses T2, cathepsin K (Homo sapiens, UniProt P43235).
T2 construct: made in house; host or cells: E. coli
T2 sequence (P43235 115-329): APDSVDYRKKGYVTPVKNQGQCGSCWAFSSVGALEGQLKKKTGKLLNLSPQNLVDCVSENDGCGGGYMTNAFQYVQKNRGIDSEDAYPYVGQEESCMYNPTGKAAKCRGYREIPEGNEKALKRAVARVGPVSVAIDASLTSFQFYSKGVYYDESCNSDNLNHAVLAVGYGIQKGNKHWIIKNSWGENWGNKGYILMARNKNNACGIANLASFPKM
The data set can be described thus: Kinetics of cathepsin K inhibition by metal ions, fluorogenic substrate Z-Phe-Arg-AMC. It is filed as biochemical. The conditions noted are these: for Mechanism: specific velocity plot / titration.

The target of data set [4] is T3, cathepsin L (Homo sapiens, UniProt P07711).
T3 construct: made in house; host or cells: E. coli
T3 sequence (P07711 114-333): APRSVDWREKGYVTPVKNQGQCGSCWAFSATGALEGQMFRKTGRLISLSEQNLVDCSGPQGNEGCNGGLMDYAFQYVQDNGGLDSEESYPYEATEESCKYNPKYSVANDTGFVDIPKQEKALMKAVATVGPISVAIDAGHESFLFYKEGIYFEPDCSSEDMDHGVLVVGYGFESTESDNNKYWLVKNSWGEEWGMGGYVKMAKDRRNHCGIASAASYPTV
The data set can be described thus: Degradation of insoluble bovine neck ligament elastin by cathepsin L. It is filed as biochemical. The conditions noted are these: metal ions 0.5 mM. As for the experimental part: (§1) Degradation of insoluble elastin was performed and analyzed according to the protocol in ref. [51]. Briefly, reactions were performed using 200 µL samples, each containing 1 mg of insoluble bovine neck ligament elastin. The enzymes were added to a final concentration of 0.2 µM and the metal ions to a final concentration of 0.5 mM. Samples were incubated at 37 °C for 120 min on an Eppendorf Thermomixer with shaking at 1200 rpm, and the reactions were then stopped by the addition of trichloroacetic acid to a final concentration of 5% (w/V). Samples were cleared by centrifugation and 100 µL of the supernatant was mixed with 1400 µL of 0.2 M sodium borate buffer and 500 µL of a 0.15 mg/mL solution of fluorescamine in acetone. The fluorescence of the samples was measured at an excitation wavelength of λex = 390 nm and emission wavelength of λem = 480 nm. Blank samples without added enzyme were run in parallel and their fluorescence values were subtracted from the samples. Experiments were performed in three replicates of each sample and each experiment was repeated multiple times to assure reproducibility of the results.

In data set [5] the target is T3, cathepsin L. The data set can be described thus: Kinetics of cathepsin L inhibition by metal ions, fluorogenic substrate Z-Leu-Arg-AMC. The note with it: for Mechanism: specific velocity plot. It is filed as biochemical.
Data set [6] deals with T2, cathepsin K. The data set can be described thus: Degradation of insoluble bovine neck ligament elastin by cathepsin K. It is filed as biochemical. The conditions noted are these: metal ions 0.5 mM. How it is done:
as §1

Data set [7] addresses T1, cathepsin S. The data set can be described thus: Degradation of insoluble bovine neck ligament elastin by cathepsin S. The format is biochemical. The note with it: metal ions 0.5 mM. How it is done:
as §1

For a further data set, the target named is cathepsins L, K, and S. The data set can be described thus: Kinetics of inhibition, summary over all tested peptidases. It is filed as biochemical, human. The note with it: range over all peptidases tested (cathepsins L, K, S); read-out: equilibrium dissociation constants (inhibition constants).
Where [8] appears, read: Z-Val-Val-Arg-AMC, 25 °C, 0.1 M sodium acetate buffer pH 5.5, read-out: KX.
Where [9] appears, read: effect on catalytic rate, general modifier mechanism.
Where [10] appears, read: effect on substrate affinity, general modifier mechanism.
Where [11] appears, read: Z-Phe-Arg-AMC, 25 °C, 0.1 M sodium acetate buffer pH 5.5, read-out: KX.
Setting [12] is: Z-Leu-Arg-AMC, 25 °C, 0.1 M sodium acetate buffer pH 5.5, read-out: KX.

Molecules are shown by their SMILES. Like-named read-outs stand apart in the source and are kept apart here.

T1 sequence (P25774 115-331): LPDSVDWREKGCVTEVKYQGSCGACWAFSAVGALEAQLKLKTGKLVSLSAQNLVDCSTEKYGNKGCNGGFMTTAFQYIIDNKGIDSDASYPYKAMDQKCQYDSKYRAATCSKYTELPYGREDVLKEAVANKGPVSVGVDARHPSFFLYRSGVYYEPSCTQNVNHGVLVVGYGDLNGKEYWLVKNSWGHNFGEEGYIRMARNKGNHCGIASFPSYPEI

With `O=[N+]([O-])[O-].O=[N+]([O-])[O-].O=[N+]([O-])[O-].[Ga+3]` [Ga^3+, Ga(NO3)3], the Ki was 3.7 ± 0.6 µM on cathepsin S [1] (setting [8]); around 4 µM on cathepsin S [1] (read-out: KX); 4.1 ± 0.8 µM on cathepsin K [3] (setting [11]); around 4 µM at cathepsin K [3] (read-out: KX); 0.6 ± 0.04 µM at cathepsin L [5] (setting [12]); 0.6 µM at cathepsin L [5] (read-out: KX). For the same compound, the values for the β on cathepsin S [1] (setting [9]) and at cathepsin K [3] (setting [9]) were 3.3 ± 0.5 and 2.4 ± 1.4, respectively. For the same compound, the α at cathepsin S [1] (setting [10]) was found to be 11.3 ± 1.0; on cathepsin K [3] (setting [10]) it was 11.5 ± 1.0. For the same compound, the Mechanism entry is recorded as “Hyperbolic mixed” on cathepsin S [1], “Hyperbolic mixed” at cathepsin K [3] and “Linear specific” at cathepsin L [5]. For the same compound, the “residual enzyme activity at saturation” value on cathepsin S [1] (synthetic substrate) and at cathepsin K [3] (synthetic substrate) was “about 20%” each time. Further, in data set [2], the “toxic effects on cell growth and metabolism” value is on record as “no significant toxic effects”. Further, the “inhibition of elastin degradation, comparison in words” value on cathepsin L [4] was “most potent inhibitor”.

`[Pb+2]` [Pb^2+, reference compound]: the Ki at cathepsin S [1] (setting [8]) was found to be 50 ± 5 µM; on cathepsin K [3] (setting [11]) it was 135 ± 13 µM; on cathepsin L [5] (setting [12]) it was 26 ± 12 µM. Further, the Mechanism entry at cathepsin S [1], on cathepsin K [3] and at cathepsin L [5] was “Linear specific” in each case.

As for `[Zn+2]` [Zn^2+], the “inhibition of elastin degradation, comparison in words” value against cathepsin K [6] and against cathepsin S [7] was “strongest inhibitor” each time. Moreover, the Ki was 2.9 ± 0.5 µM at cathepsin S [1] (setting [8]); 7.3 ± 0.3 µM at cathepsin K [3] (setting [11]); around 1 µM on cathepsins L, K, and S; 7.5 ± 0.9 µM at cathepsin L [5] (setting [12]). The Mechanism result on cathepsin S [1], at cathepsin K [3] and on cathepsin L [5] was “Linear specific” each time.

Values taken from article PMC9409168, “Kinetic Characterization of Cerium and Gallium Ions as Inhibitors of Cysteine Cathepsins L, K, and S” (International Journal of Molecular Sciences, 2022).
